How the values were obtained:
[1] = target: T1, folate receptor beta (Homo sapiens (Human), UniProt P14207); assay: Folate receptor binding assay (fluorescence polarization); details: 2.5 nM folate receptor beta, 2 nM FR-Cy probe, 2 hr incubation; read-out: FOLR2-FP
Experimental: Folate receptor binding was measured in black 96-well plates using a fluorescence polarization assay. A fluorescent probe consisting of a folate analog linked to Cy5 (FR-Cy) was custom synthesized.
Test compounds were resuspended in DMSO and 3-fold serial dilutions were made from 300-0.015 μM (100× final concentrations). Binding reactions were conducted in 200 μl final volume in 20 mM Hepes (pH 7.5) 250 mM NaCl 0.0150 Tween-20 1% DMSO with 2.5 nM folate receptor beta (Acro Biosystems) and 2 nM probe. Fluorescence polarization was measured using λex=620 nm, λem=688 nm on an Envision plate reader (Perkin Elmer) after 2 hr incubation time. Dose responses were conducted in duplicate and normalized to the response with DMSO (high) and 1 μM folic acid (low) on each plate. IC50 values were determined by fitting to 4-parameter curves in GraphPad Prism.

[2] = target: TNFα (Homo sapiens (Human), UniProt P01375); assay: TNFα binding assay (time-resolved FRET, biotinylated TNFα); details: 1 nM biotinylated TNFα, 80 nM probe, 16 hr incubation; read-out: TNF-HTRF-biotin
Experimental: TNFα binding was measured in black 96-well plates using a time-resolved FRET assay using a previously described fluorescence acceptor TNFα probe (Xiao et al J. Med. Chem. 2020). Biotinylated TNFα was purchased from Acro Biosystems. Binding reactions were conducted in 20 mM Hepes (pH 7.5) 10 mM MgCl2 0.015% Tween-20 0.05 mg/ml BSA 2% DMSO with 1 nM TNFα 0.5 nM Streptavidin-Tb and 80 nM probe. Test compounds were resuspended in DMSO and 3-fold serial dilutions were made at 100× final concentrations. Fluorescence was measured using λex=340 nm, λem=490, 520 nm on an SpectraMax M5e plate reader (Molecular Devices) after 16 hr incubation time. Dose responses were conducted in duplicate and normalized to the response with DMSO (high) and 100 nM (R)-3-(1-((3-chloro-7-fluoro-6-(2-(2-hydroxypropan-2-yl)pyrimidin-5-yl)-2-methyl-1,5-naphthyridin-4-yl)amino)ethyl)-4-fluorobenzonitrile (low) on each plate. IC50 values were determined by fitting to 4-parameter curves in GraphPad Prism.

[3] = target: TNFα and streptavidin immobilized FOL2R (Homo sapiens (Human), UniProt P01375+P14207); assay: Ternary complex SPR assay; format: binding; details: 10 nM compound, max response normalized to expected response; for TC 60 nM taggless TNF normalized: 60 nM untagged TNF; for TC 300 nM- tagless TNF Normalized: 300 nM untagged TNF; for TC 150 nM- tagless TNF Normalized: 150 nM untagged TNF
Experimental: Folate receptor-TNFα ternary complex SPR assays were conducted on a Biacore 8K instrument (Cytiva) using biotinylated folate receptor beta (Acro Biosystems). Folate receptor was immobilized at -1800 RU on a streptavidin chip (Cytiva) in 10 mM HEPES pH 7.5, 150 mM NaCl, 0.05% Tween 20. Untagged TNF was preincubated with 10 nM compound for 6 hr in 10 mM HEPES pH 7.5, 150 mM NaCl, 0.05 Tween 20, 2% DMSO at 25° C. Samples were then injected over the folate receptor surface at 30 μl/min with an association time of 110 s and a dissociation time of 600 s. Surfaces were regenerated with 4 M MgCl2 at 30 μl/mm for 30 s. The maximum measured response was normalized by comparison to the maximum expected response for each compound.

[4] = target: T1, folate receptor beta; assay: Folate receptor SPR assay (biotinylated folate receptor beta on streptavidin chip); format: binding
Experimental: Folate receptor SPR binding assays were conducted on a Biacore 8K instrument (Cytiva) using biotinylated folate receptor beta (Acro Biosystems). Briefly, folate receptor was immobilized at -550 RU on a streptavidin chip (Cytiva) in 10 mM HEPES pH 7.5, 150 mM NaCl, 0.05% Tween 20. Multi-cycle kinetic studies were conducted with 8 compound concentrations using 2-fold dilutions in 10 mM HEPES pH 7.5, 150 mM NaCl, 0.05% Tween 20, 2% DMSO at 25° C. A flow rate or 75 μl/mmn with an association time of 120 s and a dissociation time of 600 s were used. Surfaces were regenerated with 4 M MgCl2 at 30 μl/min for 30 s. Data were fit to a 1:1 model to determine the reported binding parameters.

[5] = test system: THP-1 cells; assay: Compound mediated uptake of TNFα-pHrodo in THP-1 cells (flow cytometry); format: cell-based; details: THP-1 cells, 24 hrs
Experimental: THP-1 cells, a monocytic leukemia cell line that endogenously express folate receptor beta, were used as a model system to measure example compound stimulated uptake of in-house produced TNFα conjugated to the pH sensitive fluorescent dye pHrodo green (ThermoFisher Scientific #P35369).
THP-1 cells were maintained in RPMI (Gibco #61870143) with 10% v/v FBS (VWR #89510-188) with 2 mM L-alanyl-L-glutamine dipeptide, 100 units/ml penicillin and 100 μg/ml streptomycin (Gibco #15140148). Cells were pelleted, resuspended in folate-free RPMI (Gibco #27016021) and seeded at 50,000 cells per well of a 96 well plate. Example compound was added to each well as a log 2 dilution series ranging from 20 μM to 125 nM final concentration. Cells were incubated for 24 hrs and washed/resuspended in phosphate buffered saline (pH 7.4) with 1% w/v BSA. Uptake was measured using a Novocyte Advanteon Flow Cytometer (Agilent Technologies) with the […] and FITC detection configuration.

T1 sequence (P14207 17-255): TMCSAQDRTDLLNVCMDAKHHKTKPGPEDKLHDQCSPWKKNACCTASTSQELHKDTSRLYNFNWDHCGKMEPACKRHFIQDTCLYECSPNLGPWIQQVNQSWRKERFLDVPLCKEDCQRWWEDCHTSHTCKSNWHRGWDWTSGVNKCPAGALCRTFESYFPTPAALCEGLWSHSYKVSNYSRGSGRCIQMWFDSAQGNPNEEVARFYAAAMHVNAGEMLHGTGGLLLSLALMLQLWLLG
Sequence of TNFα (P01375 77-233): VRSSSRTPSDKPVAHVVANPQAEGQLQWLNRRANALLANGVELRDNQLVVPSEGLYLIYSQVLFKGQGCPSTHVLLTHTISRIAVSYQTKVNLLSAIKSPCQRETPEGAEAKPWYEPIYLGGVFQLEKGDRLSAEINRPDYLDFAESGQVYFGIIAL
Sequence of TNFα and streptavidin immobilized FOL2R (P14207 17-230): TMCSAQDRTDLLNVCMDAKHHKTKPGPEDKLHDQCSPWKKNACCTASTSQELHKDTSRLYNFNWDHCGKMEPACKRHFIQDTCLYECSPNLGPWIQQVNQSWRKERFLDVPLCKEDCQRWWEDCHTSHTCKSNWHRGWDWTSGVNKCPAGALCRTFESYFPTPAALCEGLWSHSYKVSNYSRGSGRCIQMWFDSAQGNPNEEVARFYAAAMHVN
Sequence of TNFα and streptavidin immobilized FOL2R (P01375 77-233): as the sequence (P01375 77-233) above

SMILES	IC50 [1] [nM]	IC50 [2] [nM]	TC 300 nM- tagless TNF Normalized [3] [%]	also measured
Cc1nc2cc(F)c(-c3cnc(N4CCN(C(=O)COCCOCCOCCOCCN5CCN(C(=O)CC[C@H](NC(=O)c6ccc(N(C)Cc7cnc8nc(N)[nH]c(=O)c8n7)cc6)C(=O)O)CC5)CC4)nc3)nc2c(N[C@H](C)c2cc(C#N)ccc2F)c1Cl [Compound I-78, (S)-2-(4-(((2-amino-4-oxo-3,4-dihydropteridin-6-yl)methyl)(methyl)amino)benzamido)-5-(4-(14-(4-(5-(7-chloro-8-(((R)-1-(5-cyano-2-fluorophenyl)ethyl)amino)-3-fluoro-6-methyl-1,5-naphthyridin-2-yl)pyrimidin-2-yl)piperazin-1-yl)-14-oxo-3,6,9,12-tetraoxatetradecyl)piperazin-1-yl)-5-oxopentanoic acid]	9.2	13		
C[C@@H]1CN(c2ncc(-c3ccc4c(c3)N(Cc3ccccc3OC(F)F)C(C)(C)C4=O)cn2)CCN1C(=O)COCCOCCOCCOCCOCCOCCn1cc(CC[C@H](NC(=O)c2ccc(NCc3cnc4nc(N)nc(O)c4n3)cc2)C(=O)O)nn1 [Compound I-88, (S)-2-(4-(((2-amino-4-hydroxypteridin-6-yl)methyl)amino)benzamido)-4-(1-(20-((R)-4-(5-(1-(2-(difluoromethoxy)benzyl)-2,2-dimethyl-3-oxoindolin-6-yl)pyrimidin-2-yl)-2-methylpiperazin-1-yl)-20-oxo-3,6,9,12,15,18-hexaoxaicosyl)-1H-1,2,3-triazol-4-yl)butanoic acid]	6.9	60		
Cc1nc2cc(F)c(-c3cnc(N4CC5(CN(C(=O)COCCOCCOCCOCCOCCOCCn6cc(CC[C@H](NC(=O)c7ccc(NCc8cnc9nc(N)nc(O)c9n8)cc7)C(=O)O)nn6)C5)C4)nc3)nc2c(N[C@H](C)c2cc(C#N)ccc2F)c1Cl [Compound I-81, (S)-2-(4-(((2-amino-4-hydroxypteridin-6-yl)methyl)amino)benzamido)-4-(1-(20-(6-(5-(7-chloro-8-(((R)-1-(5-cyano-2-fluorophenyl)ethyl)amino)-3-fluoro-6-methyl-1,5-naphthyridin-2-yl)pyrimidin-2-yl)-2,6-diazaspiro[3.3]heptan-2-yl)-20-oxo-3,6,9,12,15,18-hexaoxaicosyl)-1H-1,2,3-triazol-4-yl)butanoic acid]	7.1	39	12.1	TC 60 nM taggless TNF normalized [3]: 4%
Cc1nc2cc(F)c(-c3cnc(N4CCN(C(=O)COCCn5cc(COCCOCCOCCOCCNC(=O)CC[C@H](NC(=O)c6ccc(NCc7cnc8nc(N)nc(O)c8n7)cc6)C(=O)O)nn5)CC4)nc3)nc2c(N[C@H](C)c2cc(C#N)ccc2F)c1Cl [Compound I-45, (S)-18-(4-(((2-amino-4-hydroxypteridin-6-yl)methyl)amino)benzamido)-1-(1-(2-(2-(4-(5-(7-chloro-8-(((R)-1-(5-cyano-2-fluorophenyl)ethyl)amino)-3-fluoro-6-methyl-1,5-naphthyridin-2-yl)pyrimidin-2-yl)piperazin-1-yl)-2-oxoethoxy)ethyl)-1H-1,2,3-triazol-4-yl)-15-oxo-2,5,8,11-tetraoxa-14-azanonadecan-19-oic acid]	4.2	25	17.6	TC 150 nM- tagless TNF Normalized [3]: 16.3%
CN(Cc1cnc2nc(N)[nH]c(=O)c2n1)c1ccc(C(=O)N[C@@H](CCc2cn(CCOCCOCCOCCOCCOCCOCC(=O)N3CCN(c4ncc(-c5ccc6nc(COc7cccc(N8CCCC8=O)c7)n(Cc7ccccc7OC(F)F)c6c5)cn4)CC3)nn2)C(=O)O)cc1 [Compound I-83, (S)-2-(4-(((2-amino-4-oxo-3,4-dihydropteridin-6-yl)methyl)(methyl)amino)benzamido)-4-(1-(20-(4-(5-(1-(2-(difluoromethoxy)benzyl)-2-((3-(2-oxopyrrolidin-1-yl)phenoxy)methyl)-1H-benzo[d]imidazol-6-yl)pyrimidin-2-yl)piperazin-1-yl)-20-oxo-3,6,9,12,15,18-hexaoxaicosyl)-1H-1,2,3-triazol-4-yl)butanoic acid]	5.3	28	17.5	TC 60 nM taggless TNF normalized [3]: 14.3%
Cc1nc2cc(F)c(-c3cnc(N4CCN(C(=O)COCCn5cc(COCCOCCOCCN6CCN(C(=O)[C@H](CCC(=O)O)NC(=O)c7ccc(NCc8cnc9nc(N)nc(O)c9n8)cc7)CC6)nn5)CC4)nc3)nc2c(N[C@H](C)c2cc(C#N)ccc2F)c1Cl [Compound I-97]	17		21.1	Rmax ([4]; biotinylated folate receptor beta on streptavidin chip): 17.1 RU; kd ([4]; multi-cycle kinetics, 25° C., 1:1 model): 0.000798 s⁻¹; Kd ([4]; multi-cycle kinetics, 25° C., 1:1 model, read-out: FOLR2Biotin - SPR Kd): 0.0914 nM; kon ([4]; pH 7.5, multi-cycle kinetics, 25° C., 1:1 model, read-out: ka): 8.74e+06 M⁻¹ s⁻¹; TC 150 nM- tagless TNF Normalized [3]: 18.4%
Cc1nc2cc(F)c(-c3cnc(N4CCN(C(=O)COCCOCCOCCOCCOCCOCCn5cc(CC[C@H](NC(=O)c6ccc(SCc7ccc8nc(N)nc(O)c8c7)cc6)C(=O)O)nn5)CC4)nc3)nc2c(N[C@H](C)c2cc(C#N)ccc2F)c1Cl [Compound I-79, (S)-2-(4-(((2-amino-4-hydroxyquinazolin-6-yl)methyl)thio)benzamido)-4-(1-(20-(4-(5-(7-chloro-8-(((R)-1-(5-cyano-2-fluorophenyl)ethyl)amino)-3-fluoro-6-methyl-1,5-naphthyridin-2-yl)pyrimidin-2-yl)piperazin-1-yl)-20-oxo-3,6,9,12,15,18-hexaoxaicosyl)-1H-1,2,3-triazol-4-yl)butanoic acid]	3.2	17		
Cc1nc2cc(F)c(-c3cnc(OCCCCCn4cc(COCCOCCOCCOCCNC(=O)[C@H](CCC(=O)O)NC(=O)c5ccc(NCc6cnc7nc(N)nc(O)c7n6)cc5)nn4)nc3)nc2c(N[C@H](C)c2cc(C#N)ccc2F)c1Cl [Compound 1-21]				uptake of labelled TNFα (median fluorescence intensity of pHrodo dye) [5]: stimulate uptake of TNFα

From patent US20250127913A1, “BIFUNCTIONAL FOLATE RECEPTOR BINDING COMPOUNDS” (LYCIA THERAPEUTICS, INC., priority 2021, published 2025)
